Measured values as given in patent publication US7737151B2, “Pyrazine kinase inhibitors” (Vertex Pharmaceuticals Incorporated, priority 2005, dated 2010).

Columns and labels:
Format in all cases: biochemical
Aurora-1 (Aurora B) = Aurora-1 (Aurora B) (Homo sapiens, UniProt Q96GD4); experiment: Aurora-1 (Aurora B) Inhibition Assay (Radiometric); conditions: 800 μM ATP, Kemptide, 25° C.; read-out: Ki, Aurora-1 (Aurora B) radiometric assay (sentence prints Aurora-2)
Protocol: An assay buffer solution is prepared which consisted of 25 mM HEPES (pH 7.5), 10 mM MgCl2, 0.1% BSA and 10% glycerol. A 22 nM Aurora-B solution, also containing 1.7 mM DTT and 1.5 mM Kemptide (LRRASLG), is prepared in assay buffer. To 22 μL of the Aurora-B solution, in a 96-well plate, is added 2 μl of a compound stock solution in DMSO and the mixture allowed to equilibrate for 10 minutes at 25° C. The enzyme reaction is initiated by the addition of 16 μl stock [γ-^33P]-ATP solution (˜20 nCi/μL) prepared in assay buffer, to a final assay concentration of 800 μM. The reaction is stopped after 3 hours by the addition of 16 μL 500 mM phosphoric acid and the levels of ^33P incorporation into the peptide substrate are determined by the following method. […] Levels of non-enzyme catalysed background radioactivity are determined by adding 16 μL of the 500 mM phosphoric acid to control wells, containing all assay components (which acts to denature the enzyme), prior to the addition of the [γ-^33P]-ATP solution. Levels of enzyme catalysed ^33P incorporation are calculated by subtracting mean background counts from those measured at each inhibitor concentration. […] Ki values are calculated from initial rate data by non-linear regression using the Prism software package (Prism 3.0, Graphpad Software, San Diego, Calif.). […]

FLT-3 = molecular target: T1, FLT-3 (Homo sapiens, UniProt P36888); experiment: FLT-3 Inhibition Assay, radiometric filter-binding; conditions: 90 μM ATP, 0.5 mg/ml pE4Y, room temperature
T1 sequence (P36888 27-993): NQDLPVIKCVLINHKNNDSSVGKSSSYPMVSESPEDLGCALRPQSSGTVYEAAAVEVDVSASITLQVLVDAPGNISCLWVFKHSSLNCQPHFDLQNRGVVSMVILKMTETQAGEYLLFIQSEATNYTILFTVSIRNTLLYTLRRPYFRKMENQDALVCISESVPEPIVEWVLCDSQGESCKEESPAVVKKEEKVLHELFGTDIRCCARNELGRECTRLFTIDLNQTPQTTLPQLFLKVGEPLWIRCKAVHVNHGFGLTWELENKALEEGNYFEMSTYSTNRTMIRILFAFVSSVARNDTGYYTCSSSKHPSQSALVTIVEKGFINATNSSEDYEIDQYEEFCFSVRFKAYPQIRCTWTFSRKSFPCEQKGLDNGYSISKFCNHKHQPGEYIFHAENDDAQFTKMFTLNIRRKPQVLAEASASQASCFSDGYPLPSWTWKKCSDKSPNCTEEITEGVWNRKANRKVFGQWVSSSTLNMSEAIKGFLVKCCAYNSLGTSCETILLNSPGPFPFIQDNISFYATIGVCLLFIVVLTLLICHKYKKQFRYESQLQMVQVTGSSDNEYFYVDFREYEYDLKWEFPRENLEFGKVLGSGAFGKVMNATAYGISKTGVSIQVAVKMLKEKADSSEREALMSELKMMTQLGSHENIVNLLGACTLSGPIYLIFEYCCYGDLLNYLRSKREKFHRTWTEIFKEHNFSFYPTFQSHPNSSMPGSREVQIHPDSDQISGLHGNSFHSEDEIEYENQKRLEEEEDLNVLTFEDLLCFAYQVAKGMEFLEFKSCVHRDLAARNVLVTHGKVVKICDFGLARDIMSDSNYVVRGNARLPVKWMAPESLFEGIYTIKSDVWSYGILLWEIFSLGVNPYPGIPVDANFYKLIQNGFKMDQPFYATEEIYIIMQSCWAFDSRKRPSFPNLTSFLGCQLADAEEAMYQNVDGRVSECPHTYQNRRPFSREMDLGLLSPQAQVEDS
Protocol: Compounds are screened for their ability to inhibit FLT-3 activity using a radiometric filter-binding assay. This assay monitors the 33P incorporation into a substrate poly(Glu, Tyr) 4:1 (pE4Y). Reactions are carried out in a solution containing 100 mM HEPES (pH 7.5), 10 mM MgCl2, 25 mM NaCl, 1 mM DTT, 0.01% BSA and 2.5% DMSO. Final substrate concentrations in the assay are 90 μM ATP and 0.5 mg/ml pE4Y (both from Sigma Chemicals, St Louis, Mo.). The final concentration of a compound of the present invention is generally between 0.01 and 5 μM. Typically, a 12-point titration is conducted by preparing serial dilutions from 10 mM DMSO stock of test compound. Reactions are carried out at room temperature.
Two assay solutions are prepared. Solution 1 contains 100 mM HEPES (pH 7.5), 10 mM MgCl2, 25 mM NaCl, 1 mg/ml pE4Y and […] (containing 0.3 mCi of [γ-33^P]ATP for each reaction). Solution 2 contains 100 mM HEPES (pH 7.5), 10 mM MgCl2, 25 mM NaCl, 2 mM DTT, 0.02% BSA and 3 nM FLT-3. The assay is run on a 96 well plate by mixing 50 μl each of Solution 1 and […] of the compounds of the present invention. The reaction is initiated with Solution 2. […] The amount of ^33P incorporation into pE4y is analyzed by a Packard Top Count Microplate Scintillation Counter (Meriden, Conn.). […]

Aurora-2 (Aurora A) = molecular target: T2, Aurora-2 (Aurora A) (Homo sapiens, UniProt O14965); experiment: Aurora-2 (Aurora A) Inhibition Assay, coupled enzyme assay; conditions: 400 μM ATP, 570 μM Kemptide, 40 nM Aurora-2, 30° C.
T2 sequence (O14965 1-403): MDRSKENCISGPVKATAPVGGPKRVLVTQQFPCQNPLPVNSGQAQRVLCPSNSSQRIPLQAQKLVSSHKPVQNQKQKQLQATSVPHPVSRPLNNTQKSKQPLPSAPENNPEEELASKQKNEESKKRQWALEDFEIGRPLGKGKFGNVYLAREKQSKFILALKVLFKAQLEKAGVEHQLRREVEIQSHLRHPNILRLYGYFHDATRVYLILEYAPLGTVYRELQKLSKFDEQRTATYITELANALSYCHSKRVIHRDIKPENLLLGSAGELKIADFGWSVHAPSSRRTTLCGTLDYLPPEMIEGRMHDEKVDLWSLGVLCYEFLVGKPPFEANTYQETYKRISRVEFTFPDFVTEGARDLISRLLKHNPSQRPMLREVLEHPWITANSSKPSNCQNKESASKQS
Protocol: Compounds are screened for their ability to inhibit Aurora-2 using a standard coupled enzyme assay (Fox et al., Protein Sci., (1998) 7, 2249). Assays are carried out in a mixture of 100 mM Hepes (pH7.5), 100 mM MgCl2, 1 mM DTT, 25 mM NaCl, 2.5 mM phosphoenolpyruvate, 300 μM NADH, 30 μg/ml pyruvate kinase and 10 μg/ml lactate dehydrogenase. Final substrate concentrations in the assay are 400 μM ATP (Sigma Chemicals) and 570 μM peptide (Kemptide, American Peptide, Sunnyvale, Calif.). Assays are carried out at 30° C. and in the presence of 40 nM Aurora-2.
An assay stock buffer solution is prepared containing all of the reagents listed above, with the exception of Aurora-2 and the test compound of interest. 55 μl of the stock solution is placed in a 96 well plate followed by addition of 2 μl of DMSO stock containing serial dilutions of the test compound (typically starting from a final concentration of 7.5 μM). The plate is preincubated for 10 minutes at 30° C. and the reaction initiated by addition of 10 μl of Aurora-2. Initial reaction rates are determined with a Molecular Devices SpectraMax Plus plate reader over a 10 minute time course. IC50 and Ki data are calculated from non-linear regression analysis using the Prism software package (GraphPad Prism version 3.0cx for Macintosh, GraphPad Software, San Diego Calif., USA). Compounds I-1 and I-2 inhibit Aurora-2 at a Ki value of <0.1 uM.

Aurora-1 (Aurora B), sequence (Q96GD4 whole entry): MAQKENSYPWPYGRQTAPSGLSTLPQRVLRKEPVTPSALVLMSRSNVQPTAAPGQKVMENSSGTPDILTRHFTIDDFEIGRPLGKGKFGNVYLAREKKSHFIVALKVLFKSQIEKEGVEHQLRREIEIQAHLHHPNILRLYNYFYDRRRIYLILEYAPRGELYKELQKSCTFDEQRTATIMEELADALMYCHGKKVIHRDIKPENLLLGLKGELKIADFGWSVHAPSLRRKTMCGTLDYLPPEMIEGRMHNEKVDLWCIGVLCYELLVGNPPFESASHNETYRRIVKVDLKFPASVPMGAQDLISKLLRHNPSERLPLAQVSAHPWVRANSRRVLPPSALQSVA

Structure (SMILES)	Ki (Aurora-1 (Aurora B)) [nM]	Ki (FLT-3) [nM]	Ki (Aurora-2 (Aurora A)) [nM]
Cc1cc(Nc2cncc(Sc3ccc(NC(=O)C4CC4)cc3)n2)[nH]n1 [Compound I-2, N-(4-(6-(3-methyl-1H-pyrazol-5-ylamino)pyrazin-2-ylthio)phenyl)cyclopropanecarboxamide]	< 1000	< 1000	< 100
Cc1cnc(Nc2cncc(Sc3ccc(NC(=O)C4CC4)cc3)n2)s1 [Compound I-1, N-(4-(6-(5-methylthiazol-2ylamino)pyrazin-2-ylthio)phenyl)cyclopropanecarboxamide]	–	< 1000	< 100
